From patent publication EP1650209A1, “Griseusin derivatives and their use as antitumor agents” (Oncotest GmbH, priority 2004, dated 2006)
Values after ≈ are worked out from the molar mass of the structure shown.

Tests used:
Assay in all cases: Proliferation inhibition of cancer cells (propidium iodide fluorescence)
Format in all cases: cell-based, human
22Rv1 = conditions: Prostate, 22Rv1 cell line
Protocol: (§1) Using various human cancer cells in vitro, the concentrations of the test compounds (A, B, C, D, E, F), which inhibit the proliferation of cancer cells by 50% (IC50) and 70% (IC70) were determined. Specifically, each cell line of bladder cancer (BXF 1218L and T-24), glioblastoma (CNXF 498NL), colic cancer (HCT-116 and HT-29), gastric cancer (GXF 251 L), head and neck cancer (HNXF 536L), non small cell lung cancer (LXF 1121L, LXF 289L, LXF 526L, LXF 529L, LXF 629L and H-460), mammary cancer (MAXF 401NL, MCF-7, MDA-231 and MDA-468), melanoma (MEXF 276L, MEXF 394NL, MEXF 462NL, MEXF 514L and MEXF 520L), ovary cancer (OVXF 1619L, OVXF 899L and OVCAR-3), pancreatic cancer (PAXF 1657L and PANC-1), prostate cancer (22Rv1, DU-145, LNCaP and PC3M), pleuramesothelioma (PXF 1752L), renal cancer (RXF 1781 L, RXF 393NL, RXF 486L and RXF 944L), and uterine cancer (UXF 1138L) is added to a 96-well microtiter plate at a density of 3.6-11.2x10^3 cells per well in RPMI-1640 medium containing 10% fetal calf serum and 0.1% gentamicin and incubated for 24 hours. After 24 hours RPMI-1640 medium containing 10% fetal calf serum and 0.1% gentamicin, together with a test compound, is added thereto. Then, this plate is incubated at 37°C for 4 days in a humidified atmosphere of air containing 5% CO2. Thereafter, the cell culture medium with or without drug was replaced by 200 µl of an aqueous PI solution (7 µg/ml propidium iodide). Applying a freeze thaw cycle to permeabilize intact cell walls, staining of DNA was achieved, and the fluorescence of each well was measured using the Cy-tofluor 4000 microplate reader (excitation 530 nm, emission 620 nm), giving a direct relationship to the total cell number. Proliferation inhibition is expressed as test versus untreated control (T/C-value [%]). IC50 and IC70 values were determined by plotting compound concentration versus cell viability.

DU-145 = conditions: Prostate, DU-145 cell line
Protocol: as §1

GXF 251 L = system: GXF 251 L
Protocol: as §1

HCT-116 = conditions: Colon, HCT-116 cell line
Protocol: as §1

LXFA 1121 L = conditions: Lung, non small cell, LXFA 1121 L cell line
Protocol: as §1

MAXF 401NL = MAXF 401NL cell line
Protocol: as §1

MCF-7 = conditions: Breast, MCF-7 cell line
Protocol: as §1

MDA-231 = conditions: Breast, MDA-231 cell line
Protocol: as §1

MEXF 394NL = conditions: Melanoma, MEXF 394NL cell line
Protocol: as §1

OVXF 1619L = conditions: Ovary, OVXF 1619L cell line
Protocol: as §1

PAXF 1657L = conditions: Pancreas, PAXF 1657L cell line
Protocol: as §1

PXF 1752L = conditions: Pleuramesothelio, PXF 1752L cell line
Protocol: as §1

RXF 1781 L = conditions: Kidney, RXF 1781 L cell line
Protocol: as §1

IC50 (22Rv1): 0.071 µg/mL (≈ 0.177 µM)
IC50 (DU-145): 0.251 µg/mL (≈ 0.627 µM)
IC50 value (GXF 251 L; GXF 251L cell line, 4 days): 0.106 µg/mL (≈ 0.265 µM)
IC50 (GXF 251 L; Stomach, GXF 251 L cell line): 0.106 µg/mL (≈ 0.265 µM)
IC50 (HCT-116): 0.697 µg/mL (≈ 1.74 µM)
IC50 (LXFA 1121 L): 0.083 µg/mL (≈ 0.207 µM)
IC50 (MAXF 401NL; Breast): 0.090 µg/mL (≈ 0.225 µM)
IC50 value (MAXF 401NL; 4 days): 0.09 µg/mL (≈ 0.225 µM)
IC50 (MCF-7): 0.138 µg/mL (≈ 0.345 µM)
IC50 (MDA-231): 0.068 µg/mL (≈ 0.17 µM)
IC50 (MEXF 394NL): 0.035 µg/mL (≈ 0.0874 µM)
IC50 (OVXF 1619L): 0.242 µg/mL (≈ 0.604 µM)
IC50 (PAXF 1657L): 0.094 µg/mL (≈ 0.235 µM)
IC50 (PXF 1752L): 0.124 µg/mL (≈ 0.31 µM)
IC50 (RXF 1781 L): 0.407 µg/mL (≈ 1.02 µM)
SMILES: C[C@@H]1CC(=O)[C@@H](O)[C@]2(O1)O[C@@H]1CC(=O)O[C@@H]1C1=C2C(=O)c2c(O)cccc2C1=O [Compound B, 4'-dehydro-deacetylgriseusin A]
IC70 (22Rv1): 0.139 µg/mL (≈ 0.347 µM)
IC70 (DU-145): 0.669 µg/mL (≈ 1.67 µM)
IC70 (GXF 251 L; Stomach, GXF 251 L cell line): 0.178 µg/mL (≈ 0.445 µM)
IC70 (HCT-116): 1.333 µg/mL (≈ 3.33 µM)
IC70 (LXFA 1121 L): 0.147 µg/mL (≈ 0.367 µM)
IC70 (MAXF 401NL; Breast): 0.160 µg/mL (≈ 0.4 µM)
IC70 (MCF-7): 0.210 µg/mL (≈ 0.525 µM)
IC70 (MDA-231): 0.136 µg/mL (≈ 0.34 µM)
IC70 (MEXF 394NL): 0.086 µg/mL (≈ 0.215 µM)
IC70 (OVXF 1619L): 0.916 µg/mL (≈ 2.29 µM)
IC70 (PAXF 1657L): 0.179 µg/mL (≈ 0.447 µM)
IC70 (PXF 1752L): 0.208 µg/mL (≈ 0.52 µM)
IC70 (RXF 1781 L): 1.134 µg/mL (≈ 2.83 µM)
